Source: PubChem BioAssay AID1919006 (Molecular Pharmacology Branch, DTP, NCI, 2023)

System: 885512-296-R-J2-PDC complex spheroid growth, % test/control
Experiment: Anticancer human tumor 885512-296-R-J2-PDC patient-derived breast carcinoma cell line growth inhibition [AhR]
Conditions: for IC50: curve of first compound; for viability, T/C: stronger effect = lower value
Outline: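 Agents were dosed in half-log steps down from roughly clinical Cmax, or from 10 microM where Cmax was unknown, alone and with AhR antagonists. Read-out: percent test/control growth of tumor spheroids containing HUVEC and MSC stromal cells.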

[1] = second compound 0.1 µM, first compound 0.0316 µM
[2] = second compound 0.1 µM, first compound 0.1 µM
[3] = second compound 0.1 µM, first compound 0.316 µM
[4] = second compound 0.1 µM, first compound 1 µM
[5] = second compound 0.1 µM, first compound 3.16 µM
[6] = second compound 0.1 µM, first compound 10 µM
[7] = second compound 0.316 µM, first compound 0.0316 µM
[8] = second compound 0.316 µM, first compound 0.1 µM
[9] = second compound 0.316 µM, first compound 0.316 µM
[10] = second compound 0.316 µM, first compound 1 µM
[11] = second compound 0.316 µM, first compound 3.16 µM
[12] = second compound 0.316 µM, first compound 10 µM
[13] = second compound 1 µM, first compound 0.0316 µM
[14] = second compound 1 µM, first compound 0.1 µM
[15] = second compound 1 µM, first compound 0.316 µM
[16] = second compound 1 µM, first compound 1 µM
[17] = second compound 1 µM, first compound 3.16 µM
[18] = second compound 1 µM, first compound 10 µM
[19] = second compound 3.16 µM, first compound 0.0316 µM
[20] = second compound 3.16 µM, first compound 0.1 µM
[21] = second compound 3.16 µM, first compound 0.316 µM
[22] = second compound 3.16 µM, first compound 1 µM
[23] = second compound 3.16 µM, first compound 3.16 µM
[24] = second compound 3.16 µM, first compound 10 µM
[25] = second compound 10 µM, first compound 0.0316 µM
[26] = second compound 10 µM, first compound 0.1 µM
[27] = second compound 10 µM, first compound 0.316 µM
[28] = second compound 10 µM, first compound 1 µM
[29] = second compound 10 µM, first compound 3.16 µM
[30] = second compound 10 µM, first compound 10 µM
[31] = second compound 0.1 µM, first compound 0.00316 µM
[32] = second compound 0.1 µM, first compound 0.01 µM
[33] = second compound 0.316 µM, first compound 0.00316 µM
[34] = second compound 0.316 µM, first compound 0.01 µM
[35] = second compound 1 µM, first compound 0.00316 µM
[36] = second compound 1 µM, first compound 0.01 µM
[37] = second compound 3.16 µM, first compound 0.00316 µM
[38] = second compound 3.16 µM, first compound 0.01 µM
[39] = second compound 10 µM, first compound 0.00316 µM
[40] = second compound 10 µM, first compound 0.01 µM
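Also: spheroids exposed to compounds for seven days.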

SMILES | IC50 (second compound 0.1 µM) [nM] | IC50 (second compound 0.316 µM) [nM] | IC50 (second compound 1 µM) [nM] | IC50 (second compound 3.16 µM) [nM] | IC50 (second compound 10 µM) [nM] | viability, T/C [1] [%] | viability, T/C [2] [%] | viability, T/C [3] [%] | viability, T/C [4] [%] | viability, T/C [7] [%] | viability, T/C [8] [%] | viability, T/C [9] [%] | viability, T/C [10] [%] | viability, T/C [13] [%] | viability, T/C [14] [%] | viability, T/C [15] [%] | viability, T/C [19] [%] | viability, T/C [20] [%] | viability, T/C [25] [%] | viability, T/C [26] [%] | further results
CC(C)c1c(-c2ccccc2)nc2c(C#N)c[nH]n2c1=O + CC(CO)NC(=O)c1cc(-c2ccc(Cl)cc2)nn(-c2cnn(C)c2)c1=O | > 10000 | > 10000 | > 10000 | > 10000 | > 10000 | 110 | 101 | 97.6 | 98 | 105 | 101 | 104 | 102 | 105 | 96.4 | 107 | 108 | 104 | 109 | 91.2 | viability, T/C [5]: 98.2%; viability, T/C [6]: 85.5%; viability, T/C [11]: 93.3%; viability, T/C [12]: 91.7%; viability, T/C [16]: 91.7%; viability, T/C [17]: 99.1%; viability, T/C [18]: 89.2%; viability, T/C [21]: 99.5%; viability, T/C [22]: 111%; viability, T/C [23]: 105%; viability, T/C [24]: 89.7%; viability, T/C [27]: 86.9%; viability, T/C [28]: 102%; viability, T/C [29]: 97.2%; viability, T/C [30]: 77%
COc1ccc([C@@H](O)c2cc(-c3ncnc4cc(N5CCOCC5)ccc34)c(F)cc2Cl)nn1 + CC(CO)NC(=O)c1cc(-c2ccc(Cl)cc2)nn(-c2cnn(C)c2)c1=O | > 10000 | 9460 | > 10000 | > 10000 | 4760 | 85.7 | 97.2 | 91.2 | 90.7 | 94.1 | 92.1 | 82.8 | 86.3 | 103 | 112 | 95.6 | 89.6 | 92.1 | 88.1 | 83.6 | viability, T/C [5]: 73.2%; viability, T/C [6]: 50.2%; viability, T/C [11]: 63.6%; viability, T/C [12]: 49.5%; viability, T/C [16]: 91.2%; viability, T/C [17]: 78%; viability, T/C [18]: 51.4%; viability, T/C [21]: 91.5%; viability, T/C [22]: 74.2%; viability, T/C [23]: 68.6%; viability, T/C [24]: 51.3%; viability, T/C [27]: 83.2%; viability, T/C [28]: 72.1%; viability, T/C [29]: 56.6%; viability, T/C [30]: 38.1%
Nc1ncn(C2CC(O)C(CO)O2)c(=O)n1 (stereo not given) + Cc1ccccc1N=Nc1ccc(NC(=O)c2ccnn2C)c(C)c1 | 949 | 816 | 840 | 930 | > 1000 | 112 | 106 | 74.2 | 48.9 | 122 | 111 | 78.3 | 43.9 | 122 | 106 | 80 | 112 | 95.5 | 62.8 | 67 | viability, T/C [31]: 114%; viability, T/C [32]: 128%; viability, T/C [33]: 109%; viability, T/C [34]: 114%; viability, T/C [35]: 111%; viability, T/C [36]: 108%; viability, T/C [16]: 44.7%; viability, T/C [37]: 88.8%; viability, T/C [38]: 79.2%; viability, T/C [21]: 77.3%; viability, T/C [22]: 48.1%; viability, T/C [39]: 50.6%; viability, T/C [40]: 58.4%; viability, T/C [27]: 60.1%; viability, T/C [28]: 48.3%

Now those with a lower IC50 (second compound 0.1 µM), led by results:

IC50 (second compound 0.1 µM) [nM] | IC50 (second compound 0.316 µM) [nM] | IC50 (second compound 1 µM) [nM] | IC50 (second compound 3.16 µM) [nM] | IC50 (second compound 10 µM) [nM] | SMILES | viability, T/C [1] [%] | viability, T/C [2] [%] | viability, T/C [3] [%] | viability, T/C [4] [%] | viability, T/C [7] [%] | viability, T/C [8] [%] | viability, T/C [9] [%] | viability, T/C [10] [%] | viability, T/C [13] [%] | viability, T/C [14] [%] | viability, T/C [15] [%] | viability, T/C [19] [%] | viability, T/C [20] [%] | viability, T/C [25] [%] | viability, T/C [26] [%] | further results
5.02 | 5.48 | 5.01 | 4.59 | 2.08 | CC[C@@]1(O)C(=O)OCc2c1cc1n(c2=O)Cc2cc3c(CN(C)C)c(O)ccc3nc2-1 + Cc1ccccc1N=Nc1ccc(NC(=O)c2ccnn2C)c(C)c1 | 8.84 | 6.78 |  |  | 8.71 | 7.03 |  |  | 8.48 | 8.35 |  | 9.81 | 7.76 | 9.21 | 7.45 | viability, T/C (second compound 0.1 µM, first compound 0.000316 µM): 109%; viability, T/C (second compound 0.1 µM, first compound 0.001 µM): 103%; viability, T/C [31]: 67.5%; viability, T/C [32]: 23.7%; viability, T/C (second compound 0.316 µM, first compound 0.000316 µM): 113%; viability, T/C (second compound 0.316 µM, first compound 0.001 µM): 113%; viability, T/C [33]: 74.7%; viability, T/C [34]: 23%; viability, T/C (second compound 1 µM, first compound 0.000316 µM): 117%; viability, T/C (second compound 1 µM, first compound 0.001 µM): 111%; viability, T/C [35]: 70.7%; viability, T/C [36]: 18.9%; viability, T/C (second compound 3.16 µM, first compound 0.000316 µM): 107%; viability, T/C (second compound 3.16 µM, first compound 0.001 µM): 95.4%; viability, T/C [37]: 61.1%; viability, T/C [38]: 26.5%; viability, T/C (second compound 10 µM, first compound 0.000316 µM): 54.6%; viability, T/C (second compound 10 µM, first compound 0.001 µM): 57.7%; viability, T/C [39]: 46.3%; viability, T/C [40]: 21.4%
404 | 415 | 423 | 290 | 186 | COc1cc(C2c3cc4c(cc3C(OC3OC5COC(C)OC5C(O)C3O)C3COC(=O)C23)OCO4)cc(OC)c1O (stereo not given) + Cc1ccccc1N=Nc1ccc(NC(=O)c2ccnn2C)c(C)c1 | 101 | 115 | 59.6 | 19.2 | 120 | 107 | 60.2 | 17.9 | 96.2 | 102 | 60.8 | 81.4 | 71.5 | 57.4 | 63.5 | viability, T/C [5]: 7.36%; viability, T/C [6]: 7.36%; viability, T/C [11]: 9.41%; viability, T/C [12]: 9.17%; viability, T/C [16]: 17.3%; viability, T/C [17]: 9.27%; viability, T/C [18]: 8.44%; viability, T/C [21]: 49.5%; viability, T/C [22]: 15.3%; viability, T/C [23]: 7.76%; viability, T/C [24]: 7.73%; viability, T/C [27]: 41.1%; viability, T/C [28]: 13.5%; viability, T/C [29]: 8.01%; viability, T/C [30]: 7.22%
< 31.6 | < 31.6 | < 31.6 | < 31.6 | < 31.6 | COc1cccc2c1C(=O)c1c(O)c3c(c(O)c1C2=O)CC(O)(C(=O)CO)CC3OC1CC(N)C(O)C(C)O1 (stereo not given) + Cc1ccccc1N=Nc1ccc(NC(=O)c2ccnn2C)c(C)c1 | 15.3 | 14.2 | 2.62 | 0.35 | 16 | 14.5 | 3.8 | 0.52 | 16 | 12.7 | 2.55 | 15.9 | 13.5 | 13.2 | 10.1 | viability, T/C [5]: 1.6%; viability, T/C [6]: 1.27%; viability, T/C [11]: 1.44%; viability, T/C [12]: 1.34%; viability, T/C [16]: 0.36%; viability, T/C [17]: 1.75%; viability, T/C [18]: 1.27%; viability, T/C [21]: 2.36%; viability, T/C [22]: 0.36%; viability, T/C [23]: 1.22%; viability, T/C [24]: 0.78%; viability, T/C [27]: 1.82%; viability, T/C [28]: 0.82%; viability, T/C [29]: 1.07%; viability, T/C [30]: 1.04%
